In data set [1] the target is T1, BP0403 (Bordetella pertussis, UniProt Q7VSK8, Y219A).
T1 sequence (Q7VSK8 208-503 Y219A): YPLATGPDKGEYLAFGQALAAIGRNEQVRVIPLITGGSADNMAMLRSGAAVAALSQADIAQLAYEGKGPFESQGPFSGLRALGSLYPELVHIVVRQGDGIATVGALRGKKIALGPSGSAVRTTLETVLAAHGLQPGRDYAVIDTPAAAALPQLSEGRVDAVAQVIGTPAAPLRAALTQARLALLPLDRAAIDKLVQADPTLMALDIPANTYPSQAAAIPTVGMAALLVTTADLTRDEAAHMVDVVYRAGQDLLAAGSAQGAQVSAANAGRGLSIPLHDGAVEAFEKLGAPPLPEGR
The data set is described as follows: intrinsic tyrosine fluorescence titration. Format: binding.

Data set [2] deals with T2, BP0403 (Bordetella pertussis, UniProt Q7VSK8).
T2 construct: BP0403SBP (residues 208–503), isolated C-terminal SBP domain; full-length BP0403FL (without signal peptide) also shifted in DSF
The data set is described as follows: intrinsic tyrosine fluorescence titration (n = […]); DSF shift on full-length protein and SBP domain. Format: binding.

Data set [3] concerns the target T3, BP0403 (Bordetella pertussis, UniProt Q7VSK8, Q263A).
T3 sequence (Q7VSK8 208-503 Q263A): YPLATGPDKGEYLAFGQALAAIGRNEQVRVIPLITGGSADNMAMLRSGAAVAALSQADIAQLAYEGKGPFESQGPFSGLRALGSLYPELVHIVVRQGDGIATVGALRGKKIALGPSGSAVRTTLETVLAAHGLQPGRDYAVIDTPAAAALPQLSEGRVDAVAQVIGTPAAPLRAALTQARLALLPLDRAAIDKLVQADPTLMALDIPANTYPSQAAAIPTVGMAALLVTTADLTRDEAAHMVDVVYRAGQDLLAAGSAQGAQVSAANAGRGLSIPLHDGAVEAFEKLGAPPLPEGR
Kind of data set: intrinsic tyrosine fluorescence titration. Type of data set: binding.

Data set [4] concerns the molecule itself. Kind of data set: SEC; Superdex 200 Increase 10/300 GL, 0.5 ml/min, SEC buffer (50 mM Tris-HCl pH 8, 100 mM NaCl, 5% glycerol); IMAC eluate incubated 20 min at room temperature with 5 mM EDTA and 100 mM glycerol before loading; elution volume compared with a calibration curve of molecular weight standards.

Regarding `N[C@@H](CCC(=O)O)C(=O)O` [L-glutamate], the results for the Kd in data set [1], in data set [2] and in data set [3] were 31 ± 6 µM, 0.18 ± 0.032 µM and 45 ± 3 µM, respectively.

B1: full-length BP0403 (BP0403FL) (natural protein, Bordetella pertussis, UniProt Q7VSK8 20-503, looked up)
chain: SRAPDTEILQRDVGQTLAATYGPDLFDIVALRRMGSATDSTAPPGQTRRVVYYDVVLGLKKDLTLGAWDQPGAAALVSLLGAGPRSISGVKSSGNAAGDQIVAHASAIYQRDAEQWVHVAPASFTATEAPSLDTGAPPPVTRQLLQTLEQITRSVPYSASSTAQHVVQQELERSVARINGRLARLQKGYPLATGPDKGEYLAFGQALAAIGRNEQVRVIPLITGGSADNMAMLRSGAAVAALSQADIAQLAYEGKGPFESQGPFSGLRALGSLYPELVHIVVRQGDGIATVGALRGKKIALGPSGSAVRTTLETVLAAHGLQPGRDYAVIDTPAAAALPQLSEGRVDAVAQVIGTPAAPLRAALTQARLALLPLDRAAIDKLVQADPTLMALDIPANTYPSQAAAIPTVGMAALLVTTADLTRDEAAHMVDVVYRAGQDLLAAGSAQGAQVSAANAGRGLSIPLHDGAVEAFEKLGAPPLPEGR
notes: Codon optimised synthetic gene; also called BP0403 wildtype; source: E. coli BL21 (DE3), pET151, purified (Ni-NTA, SEC)
Consider B1, for which, in data set [4], the “stoichiometry N” value is 2.

In general, Kd refers to the concentration at which binding is half-saturated. Usually stoichiometry N stands for the number of molecules, sites or subunits per partner or assembly.

Source of the values: paper PMC12344293, “A new class of binding-protein dependent solute transporter exemplified by the TAXI-GltS system from Bordetella pertussis” (Communications Biology, 2025).
